These results are taken from US12172959B2, “Mono- or di-substituted indole derivatives as dengue viral replication inhibitors” (priority 2015, dated 2024).

The test system of assay [1] is DENV-4 strain SG/06K2270DK1/2005 (Eden). Briefly: Tetravalent RT-qPCR assay Protocol A, serotype 4 EDEN. It is filed as cell-based. To be noted: Dengue virus, DENV4, Vero, 72 h. On the procedure: The antiviral activity of the compounds of the invention was tested against DENV-1 strain TC974#666 (NCPV; Table 6), DENV-2 strain 16681 (Table 7), DENV-3 strain H87 (NCPV; Table 8) and DENV-4 strains H241 (NCPV; Table 9A) and SG/06K2270DK1/2005 (Eden; Table 9B) in a RT-qPCR assay. Therefore, Vero cells were infected with either DENV-1, or -2, or -3, or -4 in the presence or absence of test compounds. At day 3 post-infection, the cells were lysed and cell lysates were used to prepare cDNA of both a viral target (the 3′UTR of DENV; Table 2) and a cellular reference gene (β-actin, Table 2). Subsequently, a duplex real time PCR was performed on a Lightcycler480 instrument. The generated Cp value is inversely proportional to the amount of RNA expression of these targets. Inhibition of DENV replication by test compound results in a shift of Cp's for the 3′UTR gene. On the other hand, if a test compound is toxic to the cells, a similar effect on β-actin expression will be observed. The comparative ΔΔCp method is used to calculate EC50, which is based on the relative gene expression of the target gene (3′UTR) normalized with the cellular housekeeping gene (β-actin).
The culture medium consisted of minimal essential medium supplemented with 2% of heat-inactivated fetal calf serum, 0.04% gentamycin (50 mg/mL) and 2 mM of L-glutamine. Vero cells, obtained from ECACC, were suspended in culture medium and 75 μL/well was added in 96-well plates (10000 cells/well), which already contain the antiviral compounds. […] In addition, each plate contains wells which are assigned as virus controls (containing cells and virus in the absence of compound) and cell controls (containing cells in the absence of virus and compound). Once the cells were added in the plates, the plates were incubated in a fully humidified incubator (37° C., 5% CO2) until the next day. Dengue viruses serotype-1, 2, 3 and 4 were diluted in order to obtain a Cp of ˜22-24 in the assay. Therefore, 25 μL of virus suspension was added to all the wells containing test compound and to the wells assigned as virus control. In parallel, 25 μL of culture medium was added to the cell controls. Next, the plates were incubated for 3 days in a fully humidified incubator (37° C., 5% CO2). After 3 days, the supernatant was removed from the wells and the cells were washed twice with ice-cold PBS (˜100 μL). The cell pellets within the 96-well plates were stored at −80° C. for at least 1 day. Next, RNA was extracted using the Cells-to-CT™ lysis kit, according to the manufacturer's guideline (Life Technologies). The cell lysates can be stored at −80° C. or immediately used in the reverse transcription step.
In preparation of the reverse transcription step, mix A (table 3A) was prepared and 7.57 μL/well was dispensed in a 96-well plate. After addition of 5 μL of the cell lysates, a five minute denaturation step at 75° C. was performed (table 3B). Afterwards, 7.43 μL of mix B was added (table 3C) and the reverse transcription step was initiated (table 3D) to generate cDNA.
Finally, a RT-qPCR mix was prepared, mix C (table 4A), and 22.02 μL/well was dispensed in 96-well LightCycler qPCR plates to which 3 μL of cDNA was added and the qPCR was performed according to the conditions in table 4B on a LightCycler 480.
Using the LightCycler software and an in-house LIMS system, dose response curves for each compound were calculated and the half maximal effective concentration (EC50) and the half maximal cytotoxic concentration (CC50) were determined.
(In general: In qPCR the cycle at which signal appears reflects the starting amount.)

Assay [2] concerns DENV-1 strain Djibouti strain (D1/H/IMTSSA/98/606). In words: Tetravalent RT-qPCR assay Protocol B, serotype 1. To be noted: Dengue virus, DENV1, 168 h, RT-qPCR serotype 1 Djibouti, 7 days. It is filed as cell-based. On the procedure:
The antiviral activity of the compounds of the invention was tested against DENV-1 strain Djibouti strain (D1/H/IMTSSA/98/606; Table 6), DENV-2 strain NGC (Table 7), DENV-3 strain H87 (Table 8) and DENV-4 strain SG/06K2270DK1/2005 (Table 9B) in a RT-qPCR assay. Vero-B or Vero-M cells (5×10^4) were seeded in 96-well plates. One day later, culture medium was replaced with 100 μL assay medium containing a 2×, 3× or 5× serial dilution of the compound (concentration range: 50 μg/mL-0.00038 μg/mL, 50 μg/mL-0.0076 μg/mL, and 50 μg/mL-0.00013 μg/mL, respectively) and 100 μL of dengue virus inoculum (DENV). Following a 2 hour incubation period, the cell monolayer was washed 3 times with assay medium to remove residual, non-adsorbed virus and cultures were further incubated for either 4 days (DENV-2 NGC) or 7 days (DENV-1 Djibouti strain D1/H/IMTSSA/98/606, DENV-3 strain H87 prototype, DENV-4 strain H241, and DENV-4 strain EDEN) in the presence of the inhibitor. Supernatant was harvested and viral RNA load was determined by real-time quantitative RT-PCR. The 50% effective concentration (EC50), which is defined as the compound concentration that is required to inhibit viral RNA replication by 50%, was determined using logarithmic interpolation.
RNA was isolated from 100 μL (or in some circumstances 150 μL) supernatant with the NucleoSpin 96 Virus kit (Filter Service, Duren, Germany) as described by the manufacturer. The sequences of the TaqMan primers (DENV-For, DENV-Rev; Table 5) and TaqMan probes (DENV-Probe Table 5) were selected from non-structural gene 3 (NS3) or NS5, of the respective flaviviruses using Primer Express software (version 2.0; Applied Biosystems, Lennik, Belgium). The TaqMan probe was fluorescently labelled with 6-carboxyfluorescein (FAM) at the 5′ end as the reporter dye, and with minor groove binder (MGB) at the 3′ end as the quencher (Table 5). One-step, quantitative RT-PCR was performed in a total volume of 25 μL, containing 13.9375 μL H2O, 6.25 μL master mix (Eurogentec, Seraing, Belgium), 0.375 μL forward primer, 0.375 μL reverse primer, 1 μL probe, 0.0625 μL reverse transcriptase (Eurogentec) and 3 μL sample. RT-PCR was performed using the ABI 7500 Fast Real-Time PCR System (Applied Biosystems, Branchburg, New Jersey, USA) using the following conditions: 30 min at 48° C. and 10 min at 95° C., followed by 40 cycles of 15 s at 95° C. and 1 min at 60° C. The data was analyzed using the ABI PRISM 7500 SDS software (version 1.3.1; Applied Biosystems). For absolute quantification, standard curves were generated using 10-fold dilutions of template preparations of known concentrations.

What is called EC50 is the concentration at which the effect is half-maximal. Low values mean higher potency in that assay, high ones lower potency in that assay. As to `COc1cc(NC(C(=O)c2c[nH]c3cc(F)ccc23)c2ccc(Cl)cc2OC)cc(S(C)(=O)=O)c1` (single isomer, unassigned) [Compound 1A, 2-(4-chloro-2-methoxyphenyl)-1-(6-fluoro-1H-indol-3-yl)-2-((3-methoxy-5-(methylsulfonyl)phenyl)amino)ethanone], the EC50 in assay [1] is 2.4 nM; in assay [2], under 15 nM.

On to `COc1cc(NC(C(=O)c2c[nH]c3c(C)c(F)ccc23)c2ccc(Cl)cc2OC)cc(S(C)(=O)=O)c1` (single isomer, unassigned) [Compound 2A, 2-(4-chloro-2-methoxyphenyl)-1-(6-fluoro-7-methyl-1H-indol-3-yl)-2-((3-methoxy-5-(methylsulfonyl)phenyl)amino)ethanone], for which the concentration giving a half-maximal response (EC50) in assay [1] is 1.3 nM; in assay [2], under 14 nM.

With `COc1cc(NC(C(=O)c2c[nH]c3cc(OC)c(C)cc23)c2ccc(Cl)cc2OC)cc(S(C)(=O)=O)c1` (single isomer, unassigned) [Compound 4A, 2-(4-chloro-2-methoxyphenyl)-2-((3-methoxy-5-(methyl-sulfonyl)phenyl)amino)-1-(6-methoxy-5-methyl-1H-indol-3-yl)ethanone], the half-maximal effective concentration (EC50) in assay [1] is 0.55 nM; in assay [2] it was under 14 nM.

For `COc1cc(NC(C(=O)c2c[nH]c3cc(OC)c(F)cc23)c2ccc(Cl)cc2OC)cc(S(C)(=O)=O)c1` (single isomer, unassigned) [Compound 5A, 2-(4-chloro-2-methoxyphenyl)-1-(5-fluoro-6-methoxy-1H-indol-3-yl)-2-((3-methoxy-5-(methylsulfonyl)phenyl)amino)ethanone], the concentration for a half-maximal effect (EC50) is 2.9 nM in assay [1] and under 14 nM in assay [2].

For the compound `COc1cc(NC(C(=O)c2c[nH]c3c(C)c(OC)ccc23)c2ccc(Cl)cc2OC)cc(S(C)(=O)=O)c1` (single isomer, unassigned) [Compound 6A, 2-(4-chloro-2-methoxyphenyl)-2-((3-methoxy-5-(methyl-sulfonyl)phenyl)amino)-1-(6-methoxy-7-methyl-1H-indol-3-yl)ethanone], the EC50 is 0.42 nM in assay [1] and under 14 nM in assay [2].
